# Results reported in patent publication US11993581B2, “Pyridazine compounds for inhibiting Nav1.8” (Lieber Institute, Inc., priority 2018, dated 2024).
# Target: T1, human Nav1.8 (hNav1.8) ion channel (Homo sapiens, UniProt Q9Y5Y9)
# T1 construct: expressed in transfected cells
# Assay: Nav1.8 inhibition, estimated IC50 (Nav1.8 fluorescence, PatchXpress and/or IonFlux HT automated patch clamp assay)
# Format: cell-based
# Conditions: HEK293 cells stably expressing hNav1.8; determined using one or more of the described methods; read-out: Activity range (estimated IC50)
# Experimental: The ability of pyridine carboxamide derivatives exemplified above to inhibit the Nav1.8 channel was determined using one or more of the methods described below.
# HEK Nav1.8 β1/β2 Stably Expressing Cell Line
# A HEK293 cell line stably expressing the human Nav1.8 (hNav1.8) ion channel with β1/β2 subunits was constructed. The cell line is suitable for IC50 determination in fluorescence and electrophysiological based assays. It is also suitable to conduct mechanism of action pharmacology studies in electrophysiological assays. HEK293 Nav1.8 cells are grown as adherent monolayers in DMEM/high glucose media, 10% fetal bovine serum, Na pyruvate (2 mM), Hepes (10 mM) with selection agents G418 (400 mg/L) and puromycin (0.5 mg/L) at 37 degrees C., 10% CO2.
# Nav1.8 Fluorescence Inhibition Assay
# Compounds were made up to or supplied as a 10-mM stock solution using DMSO as the vehicle. Concentration-response curves were generated using a Matrix multichannel pipettor. Compound source plates were made by diluting 10 mM compound stocks to create 500 μM (100×) solutions in DMSO in 96-well v-bottom plates. Compounds were then serially diluted in 100% DMSO to generate a 5 point, 4-fold dilution scheme dose response curve. 2 μL of the 100× dose response curves were then added to preincubation and stimulation assay plates. 100 μL of pre-incubation buffer and 200 μl of stimulation buffer was then added to the plates resulting in a final assay test concentration range of 5 μM to 0.02 μM with a final DMSO concentration of 1%.
# On the day of assay, plates were washed to remove cell culture media using 2K EBSS buffer (135 mM NaCl, 2 mM KCl, 5 mM Glucose, 2 mM CaCl2, 1 mM MgCl2, 10 mM HEPES, pH 7.4). The Na-sensitive fluorescent dye, Asante Natrium Green-2 (ANG-2) was incubated for 60 min to allow equilibration and then washed with 2K EBSS. Plates were then transferred to a fluorescence plate reader (FLIPR™, Molecular Devices) for fluorescence measurement using an excitation wavelength of 490 nm and an emission wavelength of 565 nm. Compounds were pre-incubated for 5 min at final test concentration in the presence of ouabain (30 μM) to inhibit Na+ efflux through Na+/K+ exchanger. Following the pre-incubation phase, hNav1.8 channels were stimulated with 10 μM of the pyrethroid deltamethrin to prevent channel inactivation. The assay was run for 15 minutes with vehicle and 30 μM tetracaine serving as negative and positive controls, respectively. The peak change in fluorescence relative to negative and positive control wells was calculated and fit with a logistic equation to determine IC50.
# PatchXpress Nav1.8 Inhibition Assay
# HEK-Nav1.8 β1/β2 cells were recorded in whole cell patch-clamp using the PatchXpress automated patch clamp platforms (Molecular Devices). Cell suspensions were obtained by trypsinization of adherent monolayers, followed by gentle rocking for minimally 30 min. Compounds were prepared from 10 mM DMSO stocks.
# Nav1.8 channel variants were evaluated using Protocol 1 in which cells were initially voltage clamped at a holding potential of −100 mV to maintain Nav1.8 in a closed resting state. After current amplitude becomes stable, the mid-point voltage of steady state inactivation was determined for each cell using a series of 5 sec conditioning steps to increasingly depolarized voltages (−100 to 0 mV) The holding potential was then reset to a voltage that produces ˜50% inactivation (Vhalf-set automatically via PatchXpress scripts) so that closed and inactivated channel inhibition could be assessed. Protocol 1 was run at a frequency of 0.1 Hz until current amplitude is steady (automatically determined by PatchXpress scripts). The effect of test reagent on Nav current amplitude was monitored using custom PatchXpress stability scripts which determines the timing of compound addition and washout.
# Data were processed and analyzed using DataXpress 2.0 (Molecular Devices). […]
# T1 sequence (Q9Y5Y9 whole entry): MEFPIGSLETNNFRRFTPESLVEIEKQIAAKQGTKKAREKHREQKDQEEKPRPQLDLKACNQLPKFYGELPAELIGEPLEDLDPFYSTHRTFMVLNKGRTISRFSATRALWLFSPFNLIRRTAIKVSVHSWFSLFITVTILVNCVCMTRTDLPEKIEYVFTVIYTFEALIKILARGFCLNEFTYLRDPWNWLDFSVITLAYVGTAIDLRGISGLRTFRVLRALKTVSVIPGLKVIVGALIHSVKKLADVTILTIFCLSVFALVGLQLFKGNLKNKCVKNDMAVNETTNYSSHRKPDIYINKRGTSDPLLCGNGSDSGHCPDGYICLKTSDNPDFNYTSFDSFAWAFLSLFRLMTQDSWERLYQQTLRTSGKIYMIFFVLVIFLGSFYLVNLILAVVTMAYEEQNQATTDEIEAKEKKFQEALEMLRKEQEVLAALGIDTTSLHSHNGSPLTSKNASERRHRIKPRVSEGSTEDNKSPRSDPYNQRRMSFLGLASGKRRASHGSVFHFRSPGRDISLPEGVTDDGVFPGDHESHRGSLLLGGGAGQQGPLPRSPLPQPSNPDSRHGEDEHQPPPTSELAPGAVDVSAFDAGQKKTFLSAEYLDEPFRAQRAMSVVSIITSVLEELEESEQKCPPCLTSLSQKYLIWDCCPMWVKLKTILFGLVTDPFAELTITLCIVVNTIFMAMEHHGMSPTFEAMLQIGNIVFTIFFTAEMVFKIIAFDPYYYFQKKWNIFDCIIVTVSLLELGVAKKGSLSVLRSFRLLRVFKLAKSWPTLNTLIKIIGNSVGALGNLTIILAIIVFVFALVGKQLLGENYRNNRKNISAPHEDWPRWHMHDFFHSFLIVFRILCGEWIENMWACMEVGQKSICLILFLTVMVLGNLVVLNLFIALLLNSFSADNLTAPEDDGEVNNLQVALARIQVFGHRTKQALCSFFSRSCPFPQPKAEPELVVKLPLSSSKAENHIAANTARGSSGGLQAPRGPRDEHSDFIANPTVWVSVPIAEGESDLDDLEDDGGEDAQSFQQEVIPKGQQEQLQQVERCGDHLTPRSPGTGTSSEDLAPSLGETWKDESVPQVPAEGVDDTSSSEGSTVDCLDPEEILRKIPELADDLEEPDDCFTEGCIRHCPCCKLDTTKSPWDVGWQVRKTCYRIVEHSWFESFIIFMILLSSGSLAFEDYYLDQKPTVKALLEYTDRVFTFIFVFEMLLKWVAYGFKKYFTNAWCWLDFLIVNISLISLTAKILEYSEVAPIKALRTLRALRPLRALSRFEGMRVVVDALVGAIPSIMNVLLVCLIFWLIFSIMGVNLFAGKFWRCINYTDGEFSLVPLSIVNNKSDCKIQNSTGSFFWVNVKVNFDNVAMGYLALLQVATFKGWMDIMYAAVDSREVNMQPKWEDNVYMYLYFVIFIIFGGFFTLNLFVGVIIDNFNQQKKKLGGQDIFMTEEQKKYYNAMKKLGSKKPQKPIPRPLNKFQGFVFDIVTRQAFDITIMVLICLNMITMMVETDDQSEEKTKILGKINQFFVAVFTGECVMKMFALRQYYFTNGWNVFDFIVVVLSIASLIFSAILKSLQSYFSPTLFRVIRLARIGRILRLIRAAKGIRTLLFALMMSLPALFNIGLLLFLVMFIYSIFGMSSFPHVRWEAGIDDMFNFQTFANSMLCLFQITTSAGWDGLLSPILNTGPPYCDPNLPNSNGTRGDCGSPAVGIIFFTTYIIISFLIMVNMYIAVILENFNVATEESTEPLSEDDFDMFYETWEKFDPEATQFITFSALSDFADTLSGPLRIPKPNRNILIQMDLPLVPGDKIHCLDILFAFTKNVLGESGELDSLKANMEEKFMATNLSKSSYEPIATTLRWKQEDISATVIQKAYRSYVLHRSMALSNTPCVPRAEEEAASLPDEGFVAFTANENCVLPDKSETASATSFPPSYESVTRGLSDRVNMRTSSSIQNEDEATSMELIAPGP
# T1 sequence (Q07699 19-218 partner): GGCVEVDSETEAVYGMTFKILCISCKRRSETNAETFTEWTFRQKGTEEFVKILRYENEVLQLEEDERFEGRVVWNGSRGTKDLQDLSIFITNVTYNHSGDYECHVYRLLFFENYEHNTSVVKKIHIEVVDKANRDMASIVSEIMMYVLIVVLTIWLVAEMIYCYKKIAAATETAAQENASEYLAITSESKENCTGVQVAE
row,Compound,IC50 [nM]
1,"CN(C)c1ncccc1CNC(=O)c1cnnc(-c2ccc(OCC3CC3)c(Cl)c2)c1 [Example 28, 6-[3-chloro-4-(cyclopropylmethoxy)phenyl]-N-[[2-(dimethylamino)-3-pyridyl]methyl]pyridazine-4-carboxamide]",< 500
2,"O=C(NCc1cccnc1N1CCCC1)c1cnnc(-c2ccc(OCC3CC3)c(Cl)c2)c1 [Example 29, 6-[3-chloro-4-(cyclopropylmethoxy)phenyl]-N-[(2-pyrrolidin-1-yl-3-pyridyl)methyl]pyridazine-4-carboxamide]",< 500
3,"O=C(NCc1cccnc1N1CCCCC1)c1cnnc(-c2ccc(OCC3CC3)c(Cl)c2)c1 [Example 30, 6-[3-chloro-4-(cyclopropylmethoxy)phenyl]-N-[[2-(1-piperidyl)-3-pyridyl]methyl]pyridazine-4-carboxamide]",< 500
4,"O=C(NCc1cc(F)cnc1N1CCOCC1)c1cnnc(-c2ccc(OCC3CC3)c(Cl)c2)c1 [Example 31, 6-[3-chloro-4-(cyclopropylmethoxy)phenyl]-N-[(5-fluoro-2-morpholino-3-pyridyl)methyl]pyridazine-4-carboxamide]",< 500
5,"O=C(NCc1cncnc1N1CCOCC1)c1cnnc(-c2ccc(OCC3CC3)c(Cl)c2)c1 [Example 32, 6-[3-chloro-4-(cyclopropylmethoxy)phenyl]-N-[(4-morpholinopyrimidin-5-yl)methyl]pyridazine-4-carboxamide]",> 1000
6,"O=C(NCc1nccnc1N1CCOCC1)c1cnnc(-c2ccc(OCC3CC3)c(Cl)c2)c1 [Example 33, 6-[3-chloro-4-(cyclopropylmethoxy)phenyl]-N-[(3-morpholinopyrazin-2-yl)methyl]pyridazine-4-carboxamide]",< 500
7,"O=C(NCc1cccnc1N1C[C@@H]2C[C@H]1CO2)c1cnnc(-c2ccc(OCC3CC3)c(Cl)c2)c1 [Example 34, 6-[3-chloro-4-(cyclopropylmethoxy)phenyl]-N-[[2-[(1S,4S)-2-oxa-5-azabicyclo[2.2.1]heptan-5-yl]-3-pyridyl]methyl]pyridazine-4-carboxamide]",< 500
8,"Cc1ccccc1CNC(=O)c1cnnc(-c2ccc(OCC3CC3)c(Cl)c2)c1 [Example 37, 6-[3-chloro-4-(cyclopropylmethoxy)phenyl]-N-(o-tolylmethyl)pyridazine-4-carboxamide]",< 500

# More lines, now with the values ahead:
row,IC50 [nM],Compound
1,500 to 1000,"CS(=O)(=O)c1ccccc1CNC(=O)c1cnnc(-c2ccc(OCC3CC3)c(Cl)c2)c1 [Example 35, 6-[3-chloro-4-(cyclopropylmethoxy)phenyl]-N-[(2-methylsulfonylphenyl)methyl]pyridazine-4-carboxamide]"
2,< 500,"COc1ccccc1CNC(=O)c1cnnc(-c2ccc(OCC3CC3)c(Cl)c2)c1 [Example 36, 6-[3-chloro-4-(cyclopropylmethoxy)phenyl]-N-[(2-methoxyphenyl)methyl]pyridazine-4-carboxamide]"
3,< 500,"[2H]C1([2H])OC([2H])([2H])C([2H])([2H])N(c2ncccc2CNC(=O)c2cnnc(-c3ccc(OCC4CC4)c(Cl)c3)c2)C1([2H])[2H] [Example 38, 6-[3-chloro-4-(cyclopropylmethoxy)phenyl]-N-[[2-(2,2,3,3,5,5,6,6-octadeuteriomorpholin-4-yl)-3-pyridyl]methyl]pyridazine-4-carboxamide]"
4,500 to 1000,"O=C(NCc1cccnc1N1CCOC(C(F)(F)F)C1)c1cnnc(-c2ccc(OCC3CC3)c(Cl)c2)c1 (stereo not shown) [Example 39, 6-[3-chloro-4-(cyclopropylmethoxy)phenyl]-N-[[2-[2-(trifluoromethyl)morpholin-4-yl]-3-pyridyl]methyl]pyridazine-4-carboxamide]"
5,< 500,"O=C(NCc1cncc(F)c1)c1cnnc(-c2ccc(OCC3CC3)c(Cl)c2)c1 [Example 40, 6-[3-chloro-4-(cyclopropylmethoxy)phenyl]-N-[(5-fluoro-3-pyridyl)methyl]pyridazine-4-carboxamide]"
